# Results as given in ChEMBL document CHEMBL3217463, “Design, synthesis and biological evaluation of -lactam hydroxamate based TACE inhibitors” (Medchemcomm, 2011).
# How the values were obtained:
# [1] = molecular target: T1, Interstitial collagenase (Homo sapiens, UniProt P03956); assay: Inhibition of MMP1 (unknown origin) by fluorescence-based FRET assay
# T1 sequence (P03956 whole entry): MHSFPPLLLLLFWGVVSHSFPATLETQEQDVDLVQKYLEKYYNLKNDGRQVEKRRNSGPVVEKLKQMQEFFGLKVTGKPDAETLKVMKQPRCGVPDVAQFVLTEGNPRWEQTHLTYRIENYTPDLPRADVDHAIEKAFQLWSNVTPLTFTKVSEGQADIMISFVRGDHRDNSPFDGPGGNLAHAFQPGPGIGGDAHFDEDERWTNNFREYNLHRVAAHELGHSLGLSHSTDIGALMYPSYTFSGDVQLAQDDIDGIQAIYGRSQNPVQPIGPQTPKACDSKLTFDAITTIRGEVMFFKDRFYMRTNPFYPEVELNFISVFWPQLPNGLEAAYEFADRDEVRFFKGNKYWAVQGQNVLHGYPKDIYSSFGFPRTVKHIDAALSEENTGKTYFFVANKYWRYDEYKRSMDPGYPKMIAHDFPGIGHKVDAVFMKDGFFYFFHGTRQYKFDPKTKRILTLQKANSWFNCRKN
# [2] = molecular target: Collagenase 3 (Homo sapiens, UniProt P45452); assay: Inhibition of MMP13 (unknown origin) by fluorescence-based FRET assay
# [3] = molecular target: T2, Disintegrin and metalloproteinase domain-containing protein 17 (Homo sapiens, UniProt P78536); assay: Ratio of IC50 for human catalytic domain of TACE to IC50 for MMP14 (unknown origin)
# T2 sequence (P78536 whole entry, the tested form may be a part): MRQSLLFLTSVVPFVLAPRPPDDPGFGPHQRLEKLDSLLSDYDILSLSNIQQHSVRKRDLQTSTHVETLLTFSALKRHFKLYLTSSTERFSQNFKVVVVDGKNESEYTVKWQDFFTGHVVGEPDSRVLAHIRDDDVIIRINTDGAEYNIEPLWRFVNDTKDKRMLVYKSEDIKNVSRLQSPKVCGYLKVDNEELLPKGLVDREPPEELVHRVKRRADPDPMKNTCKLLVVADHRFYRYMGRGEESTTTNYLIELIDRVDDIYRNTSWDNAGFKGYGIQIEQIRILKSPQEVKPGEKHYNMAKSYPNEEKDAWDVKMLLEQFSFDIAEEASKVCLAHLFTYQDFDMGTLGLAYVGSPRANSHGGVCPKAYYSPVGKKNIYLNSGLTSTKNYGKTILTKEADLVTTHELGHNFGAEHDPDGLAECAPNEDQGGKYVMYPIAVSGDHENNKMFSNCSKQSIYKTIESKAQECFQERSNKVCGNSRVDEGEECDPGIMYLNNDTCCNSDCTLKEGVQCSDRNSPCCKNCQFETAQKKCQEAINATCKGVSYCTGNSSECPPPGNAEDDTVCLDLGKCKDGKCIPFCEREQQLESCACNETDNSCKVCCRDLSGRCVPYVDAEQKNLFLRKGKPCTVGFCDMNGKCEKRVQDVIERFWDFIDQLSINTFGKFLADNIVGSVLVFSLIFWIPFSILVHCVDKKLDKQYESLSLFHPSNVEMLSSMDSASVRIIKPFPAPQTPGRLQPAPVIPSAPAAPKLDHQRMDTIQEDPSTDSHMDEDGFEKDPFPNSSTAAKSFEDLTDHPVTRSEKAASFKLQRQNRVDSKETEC
# [4] = molecular target: Matrix metalloproteinase-9 (Homo sapiens, UniProt P14780); assay: Inhibition of MMP9 (unknown origin) by fluorescence-based FRET assay
# Chain of Matrix metalloproteinase-9 (P14780 whole entry, the tested form may be a part): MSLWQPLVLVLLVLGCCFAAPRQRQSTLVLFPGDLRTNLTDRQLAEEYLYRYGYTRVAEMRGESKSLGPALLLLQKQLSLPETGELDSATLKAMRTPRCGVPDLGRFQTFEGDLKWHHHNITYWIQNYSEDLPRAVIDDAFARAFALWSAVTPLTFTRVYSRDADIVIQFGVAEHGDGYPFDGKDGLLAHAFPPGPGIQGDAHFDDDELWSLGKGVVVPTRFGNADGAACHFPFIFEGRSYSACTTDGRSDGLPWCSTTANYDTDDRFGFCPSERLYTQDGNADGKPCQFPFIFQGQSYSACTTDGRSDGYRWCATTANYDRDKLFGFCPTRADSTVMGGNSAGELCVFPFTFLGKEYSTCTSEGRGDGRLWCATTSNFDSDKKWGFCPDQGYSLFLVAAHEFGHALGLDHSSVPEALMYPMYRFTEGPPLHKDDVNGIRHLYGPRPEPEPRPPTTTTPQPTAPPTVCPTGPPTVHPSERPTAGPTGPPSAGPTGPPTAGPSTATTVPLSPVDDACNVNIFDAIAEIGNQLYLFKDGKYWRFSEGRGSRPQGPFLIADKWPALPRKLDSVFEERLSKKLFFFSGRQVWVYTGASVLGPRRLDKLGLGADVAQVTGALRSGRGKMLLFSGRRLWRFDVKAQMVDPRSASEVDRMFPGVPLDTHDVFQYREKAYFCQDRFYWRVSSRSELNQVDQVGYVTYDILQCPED
# [5] = molecular target: T2, Disintegrin and metalloproteinase domain-containing protein 17; assay: Ratio of IC50 for human catalytic domain of TACE to IC50 for MMP8 (unknown origin)
# [6] = molecular target: Stromelysin-1 (Homo sapiens, UniProt P08254); assay: Inhibition of MMP3 (unknown origin) by fluorescence-based FRET assay
# Chain of Stromelysin-1 (P08254 whole entry): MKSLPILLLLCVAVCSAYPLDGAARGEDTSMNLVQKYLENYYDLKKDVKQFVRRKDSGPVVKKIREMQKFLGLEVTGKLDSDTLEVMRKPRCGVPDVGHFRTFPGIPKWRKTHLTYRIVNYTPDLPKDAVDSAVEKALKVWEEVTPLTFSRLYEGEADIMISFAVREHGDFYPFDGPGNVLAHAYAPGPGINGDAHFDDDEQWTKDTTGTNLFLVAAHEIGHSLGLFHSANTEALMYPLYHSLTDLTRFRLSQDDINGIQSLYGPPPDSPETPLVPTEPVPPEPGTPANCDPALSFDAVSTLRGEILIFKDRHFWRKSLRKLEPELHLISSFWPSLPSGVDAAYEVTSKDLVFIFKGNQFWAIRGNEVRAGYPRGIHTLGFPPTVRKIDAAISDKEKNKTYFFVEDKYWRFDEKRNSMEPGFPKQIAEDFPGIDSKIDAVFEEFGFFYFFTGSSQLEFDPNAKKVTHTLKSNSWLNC
# [7] = test system: Blood; assay: Antiinflammatory activity in human whole blood assessed as inhibition of LPS-induced TNFalpha secretion by ELISA; type: functional, tissue-based
# [8] = molecular target: 72 kDa type IV collagenase (Homo sapiens, UniProt P08253); assay: Inhibition of MMP2 (unknown origin) by fluorescence-based FRET assay
# Chain of 72 kDa type IV collagenase (P08253 whole entry, the tested form may be a part): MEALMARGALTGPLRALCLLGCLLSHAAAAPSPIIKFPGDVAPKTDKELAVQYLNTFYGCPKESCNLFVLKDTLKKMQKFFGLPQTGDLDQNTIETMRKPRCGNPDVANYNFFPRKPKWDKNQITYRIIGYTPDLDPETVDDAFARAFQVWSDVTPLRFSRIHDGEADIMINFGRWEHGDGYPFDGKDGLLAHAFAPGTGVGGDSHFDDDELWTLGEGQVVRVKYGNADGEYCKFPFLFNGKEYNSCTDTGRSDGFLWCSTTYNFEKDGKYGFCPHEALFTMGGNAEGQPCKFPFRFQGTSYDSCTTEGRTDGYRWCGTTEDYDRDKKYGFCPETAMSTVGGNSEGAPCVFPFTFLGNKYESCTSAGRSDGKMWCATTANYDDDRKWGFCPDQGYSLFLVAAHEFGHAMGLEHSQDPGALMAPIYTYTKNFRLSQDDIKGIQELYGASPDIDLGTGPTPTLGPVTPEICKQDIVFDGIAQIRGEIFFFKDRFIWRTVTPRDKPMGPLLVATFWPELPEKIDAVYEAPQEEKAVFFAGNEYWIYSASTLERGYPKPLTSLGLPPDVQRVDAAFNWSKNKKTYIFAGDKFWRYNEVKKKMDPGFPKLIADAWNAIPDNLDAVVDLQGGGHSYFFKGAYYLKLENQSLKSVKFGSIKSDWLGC
# [9] = molecular target: T2, Disintegrin and metalloproteinase domain-containing protein 17; assay: Ratio of IC50 for human catalytic domain of TACE to IC50 for MMP3 (unknown origin)
# [10] = molecular target: T2, Disintegrin and metalloproteinase domain-containing protein 17; assay: Ratio of IC50 for human catalytic domain of TACE to IC50 for MMP13 (unknown origin)
# [11] = molecular target: Matrix metalloproteinase-14 (Homo sapiens, UniProt P50281); assay: Inhibition of MMP14 (unknown origin) by fluorescence-based FRET assay
# [12] = molecular target: T2, Disintegrin and metalloproteinase domain-containing protein 17; assay: Ratio of IC50 for human catalytic domain of TACE to IC50 for MMP2 (unknown origin)
# [13] = molecular target: T2, Disintegrin and metalloproteinase domain-containing protein 17; assay: Inhibition of human catalytic domain of TACE assessed as inhibit the cleavage of the substrate by fluorescence-based FRET assay
# [14] = test system: Mus musculus; assay: Antiinflammatory activity in po dosed Swiss Albino mouse assessed as inhibition of LPS-induced TNFalpha secretion in blood treated 0.5 hrs before LPS and measured after 1 hr of LPS stimulus by ELISA; type: functional
# [15] = molecular target: T3, Matrilysin (Homo sapiens, UniProt P09237); assay: Inhibition of MMP7 (unknown origin) by fluorescence-based FRET assay
# T3 sequence (P09237 whole entry): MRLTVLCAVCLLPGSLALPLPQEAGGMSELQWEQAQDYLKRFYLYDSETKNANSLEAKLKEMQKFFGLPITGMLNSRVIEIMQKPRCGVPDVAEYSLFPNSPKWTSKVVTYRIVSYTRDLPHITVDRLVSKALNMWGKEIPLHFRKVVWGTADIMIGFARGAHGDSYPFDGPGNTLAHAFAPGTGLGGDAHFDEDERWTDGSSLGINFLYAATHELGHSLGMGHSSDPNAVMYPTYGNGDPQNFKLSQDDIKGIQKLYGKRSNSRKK
# [16] = molecular target: Neutrophil collagenase (Homo sapiens, UniProt P22894); assay: Inhibition of MMP8 (unknown origin) by fluorescence-based FRET assay
# Chain of Neutrophil collagenase (P22894 whole entry, the tested form may be a part): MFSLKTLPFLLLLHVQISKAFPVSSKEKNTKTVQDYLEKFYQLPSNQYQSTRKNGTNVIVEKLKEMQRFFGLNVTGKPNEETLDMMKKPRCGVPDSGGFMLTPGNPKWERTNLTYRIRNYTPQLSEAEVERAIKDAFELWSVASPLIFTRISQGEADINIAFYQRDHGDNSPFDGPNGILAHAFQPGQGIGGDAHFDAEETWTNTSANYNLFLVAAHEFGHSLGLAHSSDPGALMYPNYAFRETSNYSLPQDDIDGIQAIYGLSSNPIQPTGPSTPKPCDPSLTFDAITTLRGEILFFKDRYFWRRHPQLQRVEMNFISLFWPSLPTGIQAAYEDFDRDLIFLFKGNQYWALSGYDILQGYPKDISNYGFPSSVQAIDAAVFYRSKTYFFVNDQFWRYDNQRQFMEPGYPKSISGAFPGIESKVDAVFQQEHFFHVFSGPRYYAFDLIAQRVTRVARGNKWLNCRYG
# [17] = molecular target: T2, Disintegrin and metalloproteinase domain-containing protein 17; assay: Ratio of IC50 for human catalytic domain of TACE to IC50 for MMP7 (unknown origin)
# [18] = molecular target: T2, Disintegrin and metalloproteinase domain-containing protein 17; assay: Ratio of IC50 for human catalytic domain of TACE to IC50 for MMP1 (unknown origin)
# [19] = molecular target: T4, Disintegrin and metalloproteinase domain-containing protein 10 (Homo sapiens, UniProt O14672); assay: Inhibition of ADAM10 (unknown origin) using fluorescent substrate by fluorescence-based FRET assay
# T4 sequence (O14672 whole entry): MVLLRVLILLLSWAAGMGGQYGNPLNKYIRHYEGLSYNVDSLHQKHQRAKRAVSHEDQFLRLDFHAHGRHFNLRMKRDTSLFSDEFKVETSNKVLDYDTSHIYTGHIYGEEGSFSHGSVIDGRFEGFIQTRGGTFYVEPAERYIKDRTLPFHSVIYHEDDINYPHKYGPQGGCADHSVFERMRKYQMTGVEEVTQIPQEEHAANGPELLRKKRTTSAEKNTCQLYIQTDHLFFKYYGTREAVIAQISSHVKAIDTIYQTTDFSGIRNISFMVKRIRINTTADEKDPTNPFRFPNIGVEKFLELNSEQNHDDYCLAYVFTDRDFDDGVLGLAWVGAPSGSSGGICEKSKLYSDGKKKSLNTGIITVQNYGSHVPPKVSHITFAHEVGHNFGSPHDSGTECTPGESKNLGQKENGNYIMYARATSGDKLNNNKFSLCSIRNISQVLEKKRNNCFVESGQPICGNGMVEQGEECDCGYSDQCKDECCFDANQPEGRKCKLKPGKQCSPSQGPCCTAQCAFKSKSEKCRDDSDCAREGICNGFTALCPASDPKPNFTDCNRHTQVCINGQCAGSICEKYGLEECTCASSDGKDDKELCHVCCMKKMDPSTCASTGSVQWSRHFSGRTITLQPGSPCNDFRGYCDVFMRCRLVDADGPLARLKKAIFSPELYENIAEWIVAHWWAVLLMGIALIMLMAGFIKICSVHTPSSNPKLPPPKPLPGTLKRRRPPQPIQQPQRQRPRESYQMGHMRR
# [20] = molecular target: T2, Disintegrin and metalloproteinase domain-containing protein 17; assay: Ratio of IC50 for human catalytic domain of TACE to IC50 for ADAM10 (unknown origin)
# [21] = molecular target: T2, Disintegrin and metalloproteinase domain-containing protein 17; assay: Ratio of IC50 for human catalytic domain of TACE to IC50 for MMP9 (unknown origin)
smiles,measurement,setting,value
COCc1cc(COc2ccc([C@]3(N)CCN([C@H](CC(C)C)C(=O)NO)C3=O)cc2)c2ccccc2n1,IC50,[1],1130 nM
same,IC50,[2],1230 nM
same,Ratio IC50,[3],> 500
same,IC50,[4],1160 nM
same,Ratio IC50,[5],> 500
same,IC50,[6],1080 nM
same,IC50,[7],11 nM
same,IC50,[8],1170 nM
same,Ratio IC50,[9],> 500
same,Ratio IC50,[10],> 500
same,IC50,[11],1070 nM
same,Ratio IC50,[12],> 500
same,IC50,[13],2.1 nM
same,ED50,[14],7.2 mg/kg
same,IC50,[15],1240 nM
same,IC50,[16],1010 nM
same,Ratio IC50,[17],> 500
same,Ratio IC50,[18],> 500
same,IC50,[19],1210 nM
same,Ratio IC50,[20],> 500
same,Ratio IC50,[21],> 500
CC(C)C[C@H](C(=O)NO)N1CC[C@@](N)(c2ccc(OCc3cc(COC(C)C)nc4ccccc34)cc2)C1=O,IC50,[7],123 nM
CC(C)C[C@H](C(=O)NO)N1CC[C@@](N)(c2ccc(OCc3cc(-c4ccc(F)cc4)nc4ccccc34)cc2)C1=O,IC50,[7],290 nM
CC(C)C[C@H](C(=O)NO)N1CC[C@@](N)(c2ccc(OCc3cc(C4CC4)nc4ccccc34)cc2)C1=O,IC50,[7],170 nM
CC(C)C[C@H](C(=O)NO)N1CC[C@@](N)(c2ccc(OCc3cc(-c4ccc(Cl)cc4)nc4ccccc34)cc2)C1=O,IC50,[7],286 nM
CC(C)C[C@H](C(=O)NO)N1CC[C@@](N)(c2ccc(OCc3cc(C4CCCCC4)nc4ccccc34)cc2)C1=O,IC50,[7],177 nM
COCc1cc(COc2ccc([C@]3(N)CCN([C@H](C)C(=O)NO)C3=O)cc2)c2ccccc2n1,IC50,[7],98 nM
COc1cc(COc2ccc([C@]3(N)CCN([C@H](CC(C)C)C(=O)NO)C3=O)cc2)c2ccccc2n1,IC50,[7],401 nM
CC(C)C[C@H](C(=O)NO)N1CC[C@@](N)(c2ccc(OCc3cc(Cl)nc4ccccc34)cc2)C1=O,IC50,[7],450 nM
CC(C)C[C@H](C(=O)NO)N1CC[C@@](N)(c2ccc(OCc3cc(CCOC(C)C)nc4ccccc34)cc2)C1=O,IC50,[7],130 nM
CCc1cc(COc2ccc([C@]3(N)CCN([C@H](CC(C)C)C(=O)NO)C3=O)cc2)c2ccccc2n1,IC50,[7],111 nM
